Target: T1, Axl enzyme (Homo sapiens, UniProt P30530)
T1 construct: a solution containing 400 ng/mL Axl enzyme was prepared
T1 sequence (P30530 26-894): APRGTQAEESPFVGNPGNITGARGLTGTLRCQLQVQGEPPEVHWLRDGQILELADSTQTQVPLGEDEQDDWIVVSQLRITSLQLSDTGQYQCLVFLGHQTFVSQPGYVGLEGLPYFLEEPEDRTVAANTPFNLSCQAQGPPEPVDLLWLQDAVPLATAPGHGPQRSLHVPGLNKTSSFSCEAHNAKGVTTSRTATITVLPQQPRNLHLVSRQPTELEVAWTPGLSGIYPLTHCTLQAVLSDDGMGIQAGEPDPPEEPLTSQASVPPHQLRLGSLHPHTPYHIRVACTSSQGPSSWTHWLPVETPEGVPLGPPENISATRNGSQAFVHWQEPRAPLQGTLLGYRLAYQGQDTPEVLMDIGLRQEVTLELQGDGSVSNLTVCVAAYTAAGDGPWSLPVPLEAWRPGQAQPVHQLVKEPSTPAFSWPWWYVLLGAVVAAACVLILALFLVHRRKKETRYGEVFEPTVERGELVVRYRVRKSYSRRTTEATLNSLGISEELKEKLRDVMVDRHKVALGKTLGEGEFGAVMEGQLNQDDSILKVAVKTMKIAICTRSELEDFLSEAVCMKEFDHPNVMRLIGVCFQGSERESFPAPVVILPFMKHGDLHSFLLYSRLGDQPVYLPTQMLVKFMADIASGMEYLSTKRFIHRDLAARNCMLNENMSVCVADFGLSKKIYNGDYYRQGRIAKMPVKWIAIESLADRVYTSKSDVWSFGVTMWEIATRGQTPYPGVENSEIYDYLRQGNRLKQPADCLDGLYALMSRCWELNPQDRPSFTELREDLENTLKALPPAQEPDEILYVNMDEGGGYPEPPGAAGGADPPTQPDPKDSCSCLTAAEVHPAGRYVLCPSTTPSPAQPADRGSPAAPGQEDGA
Assay: Measurement of an Axl inhibitory activity (LanthaScreen TR-FRET, in vitro test)
Assay type: biochemical
Protocol: Biological Example 1: Measurement of an Axl Inhibitory Activity (In Vitro Test)
An Axl enzyme inhibitory activity was measured by using LanthaScreen (registered trademark) system (Invitrogen) based on the attached instruction. The reagents used are shown below.
Reaction buffer solution: a solution containing 50 mmol/L HEPES (pH7.5), 0.01% Brij35, 10 mmol/L MgCl2 and 1 mmol/L EGTA was prepared by using purified water.
Test substance solution: a solution containing a test compound of 5-fold concentration with respect to the final concentration was prepared by 20-fold diluting a DMSO solution of test compound of each concentration with the reaction buffer solution.
Enzyme solution: a solution containing 400 ng/mL Axl enzyme was prepared by using the reaction buffer solution.
Substrate solution: a solution containing 45 μmmol/L ATP and 500 nmmol/L Fluorescein-Poly GT (Invitrogen) was prepared by using the reaction buffer solution.
Detection solution: a solution containing 20 mM EDTA and 4 nM PY20 (Invitrogen) was prepared by using Dilution B (Invitrogen).
A 10 mmol/L DMSO solution of the test compound was dispensed into a 96-well plate (Nunc), and, furthermore, a 3-fold dilution series was prepared using DMSO. In each well of the 96-well plate for measurement, 5 μL each of the reaction buffer solution containing DMSO was added to a Blank group and a medium group, and 5 μL of the test substance solution was added to the test substance group, respectively. Next, 10 μL/well of the reaction buffer solution was added to the Blank group, and 10 μL/well each of the enzyme solution was added to the medium group and the test compound group, followed by stirring at room temperature for 10 min. After the completion of stirring, 10 μL each of the substrate solution was added into each well, followed by stirring at room temperature with light shielded for one hour. After the completion of reaction, 25 μL each of the detection solution was added to each well, and stood still at room temperature with light shielded for 30 min. After standing sill, fluorescence intensity at 520 nm and 495 nm at the time of irradiation with exciting light of 340 nm was measured by using Analyst GT (Molecular Devices). The phosphorylation of the artificial substrate was quantified by Time-resolved Fluorescence Resonance Energy Transfer (TR-FRET). TR-FRET ratio was calculated by dividing 520 nm fluorescence signal by 495 nm fluorescence signal for each well, and the inhibition rate (%) in the test compound group was calculated based on the following mathematical formula. Inhibition rate (%)=[1−(TR-FRET ratio of test compound group−A)/(B−A)×100 [Math. 1] A: average value of TR-FRET ratios of Blank group B: average value of TR-FRET ratios of medium group
Values of 50% inhibition rate (IC50 values) of the test compound were calculated from the inhibition curve based on the inhibition rate of the test compounds in each concentration.

COc1cc2nccc(Oc3ccc(NC(=O)c4cc5c(n(-c6ccccc6)c4=O)CC(C)(C)CC5=O)nc3)c2cc1OC [Example 5(1), N-{5-[(6,7-dimethoxy-4-quinolinyl)oxy]-2-pyridinyl}-7,7-dimethyl-2,5-dioxo-1-phenyl-1,2,5,6,7,8-hexahydro-3-quinolinecarboxamide] was tested. Which IC50 did it give?
Its IC50 is 5.6 nM.

For COc1cc2nccc(Oc3ccc(NC(=O)c4cc5c(n(-c6ccccc6)c4=O)CCCC5=O)nc3)c2cc1OC [Example 5, N-{5-[(6,7-dimethoxy-4-quinolinyl)oxy]-2-pyridinyl}-2,5-dioxo-1-phenyl-1,2,5,6,7,8-hexahydro-3-quinolinecarboxamide], which IC50 is on record?
The IC50 was 2.2 nM.

How did the IC50 turn out when O=C1CCCc2c1cc(C(=O)Nc1ccc(Oc3ccnc4cc(OCCCN5CCOCC5)ccc34)cn1)c(=O)n2-c1ccccc1 [Example 17(2), N-[5-({7-[3-(4-morpholinyl)propoxy]-4-quinolinyl}oxy)-2-pyridinyl]2,5-dioxo-1-phenyl-1,2,5,6,7,8-hexahydro-3-quinolinecarboxamide] was run?
Its IC50 is 4.4 nM.

How did the IC50 turn out when COc1cc2nccc(Oc3ccc(NC(=O)c4cc5c(n(-c6ccccc6)c4=O)CCCC5=O)c(C)c3)c2cc1OC [Example 23(2), N-{4-[(6,7-dimethoxy-4-quinolinyl)oxy]-2-methylphenyl}-2,5-dioxo-1-phenyl-1,2,5,6,7,8-hexahydro-3-quinolinecarboxamide] was run?
Its IC50 is 1.1 nM.

Source: patent publication US10676462B2, “Quinoline derivative” (ONO PHARMACEUTICAL CO., LTD., priority 2013, dated 2020)
